The record followed here is patent US20210008176A1, “COMPOSITIONS COMPRISING SULFORAPHANE OR A SULFORAPHANE PRECURSOR AND MAGNESIUM” (NUTRAMAX LABORATORIES, INC., priority 2012, published 2021).

The test system of test [1] is broccoli sprout-derived myrosinase. Put plainly: Consumption of glucoraphanin by myrosinase as a function of ascorbic acid concentration. The settings on record: for glucoraphanin (GR) content: 38° C.; for Slope (rate of glucoraphanin consumption): linear regression 0-60 min. In kind it is biochemical. On the procedure: Consumption of Glucoraphanin as a Function of the Ascorbic Acid Concentration.
About 250 mg of broccoli seed extract containing about 12% (w/w) glucoraphanin were subjected to hydrolysis by a fixed concentration of broccoli sprout-derived myrosinase in the presence of variable concentration of ascorbic acid, ranging from 0 to 600 μmoles/Liter. The reaction mixtures were thermostated at 38° C.; aliquots were withdrawn every 15 minutes for 60 minutes, and concentration of glucoraphanin determined chromatographically. The rate of glucoraphanin consumption was interpreted as the rate its conversion to sulforaphane. Graphical representation of glucoraphanin content reduction as a function of increasing ascorbic acid concentration results in a series of linear plots; the slopes of the linear regression lines reflect the rate of glucoraphanin consumption, in μmoles/minute. It is apparent that in the presence of 600 μmoles/Liter concentration of ascorbic acid, the reaction rate increased 13-fold relative to that which proceeded in the absence of modulatory effects of ascorbic acid.

In test [2] the test system is myrosinase. The test is described as follows: Equimolar conversion of glucoraphanin to sulforaphane by myrosinase with and without ascorbic acid. In kind it is biochemical, broccoli. The note with it: control sample, without ascorbic acid. On the procedure:
A two-part experiment was conducted to further elucidate the role of ascorbic acid in modulating myrosinase activity. […] A control sample contained no ascorbic acid, and the enzymatic conversion proceeded unassisted by a co-factor. PART 1. […] PART 2. While keeping the amount of broccoli seed extract fixed at 250 mg, the concentration of ascorbic acid was varied from 0.4 mmol/Liter to 3.8 mmol/Liter.

For test [3], the system named is monocyte chemoattractant protein (MCP-1). The settings on record: RAW cells, 1μg/mL LPS 30 minutes, then 24 hours treatment; 0.5 μM SFN, 2.5 mM MgSO4, or both. On the procedure:
The following study was conducted to determine the effect of the combination of sulforaphane and magnesium sulfate (MgSO4) on expression of monocyte chemoattractant protein (MCP-1), which is a mediator of inflammation. MCP-1 is chemokine which attracts monocytes, macrophages, and lymphocytes to sites of inflammation. A reduction in MCP-1 is beneficial for the health of endothelial cells which line the cardiovascular system.
In the study, RAW cells were activated with 1μg/mL lipopolysaccharide (LPS) for 30 minutes to stimulate the induction of MCP-1 gene expression. Following LPS treatment, the cells were treated with one of the following: (i) DMSO (vehicle control), (ii) 0.5 μM SFN, (iii) 2.5 mM MgSO4, or (iv) the combination of 0.5 μM SFN and 2.5 mM MgSO4. After treatment for 24 hours, the MCP-1 levels were assessed via quantitative RT-PCR.

In the case of `C[S+]([O-])CCCC/C(=N\OS(=O)(=O)O)S[C@@H]1O[C@H](CO)[C@@H](O)[C@H](O)[C@H]1O` (stereo partly drawn) [GR, 4-methylsulfinylbutyl glucosinolate], the “glucoraphanin (GR) content” value in test [1] (ascorbic acid 0 μM, 0 min) stood at 93.36 µmol; in test [1] (ascorbic acid 0 μM, 15 min), 92.24 µmol; in test [1] (ascorbic acid 0 μM, 30 min) it was 90.71 µmol; in test [1] (ascorbic acid 0 μM, 45 min) it was 89.44 µmol; in test [1] (ascorbic acid 0 μM, 60 min), 87.79 µmol; in test [1] (ascorbic acid 50 μM, 0 min), 93.36 µmol. In addition, the “glucoraphanin (GR) content” value came to 89.20 µmol in test [1] (ascorbic acid 50 μM, 15 min); 84.24 µmol in test [1] (ascorbic acid 50 μM, 30 min); 80.30 µmol in test [1] (ascorbic acid 50 μM, 45 min); 76.36 µmol in test [1] (ascorbic acid 50 μM, 60 min); 93.36 µmol in test [1] (ascorbic acid 125 μM, 0 min); 84.52 µmol in test [1] (ascorbic acid 125 μM, 15 min). In addition, the “glucoraphanin (GR) content” value in test [1] (ascorbic acid 125 μM, 30 min) came out at 75.92 µmol; in test [1] (ascorbic acid 125 μM, 45 min), 68.09 µmol; in test [1] (ascorbic acid 125 μM, 60 min), 59.41 µmol; in test [1] (ascorbic acid 250 μM Filtered, 0 min) it was 93.36 µmol; in test [1] (ascorbic acid 250 μM Filtered, 15 min) it was 86.31 µmol; in test [1] (ascorbic acid 250 μM Filtered, 30 min) it was 79.44 µmol. In addition, the “glucoraphanin (GR) content” value in test [1] (ascorbic acid 250 μM Filtered, 45 min) turned out to be 71.94 µmol; in test [1] (ascorbic acid 250 μM Filtered, 60 min), 65.18 µmol; in test [1] (ascorbic acid 250 μM, 0 min), 93.36 µmol; in test [1] (ascorbic acid 250 μM, 15 min), 80.95 µmol; in test [1] (ascorbic acid 250 μM, 30 min), 69.06 µmol; in test [1] (ascorbic acid 250 μM, 45 min), 57.63 µmol. The “glucoraphanin (GR) content” value in test [1] (ascorbic acid 250 μM, 60 min) amounted to 45.76 µmol; in test [1] (ascorbic acid 400 μM, 0 min), 93.36 µmol; in test [1] (ascorbic acid 400 μM, 15 min) it was 78.32 µmol; in test [1] (ascorbic acid 400 μM, 30 min) it was 62.78 µmol; in test [1] (ascorbic acid 400 μM, 45 min), 47.67 µmol; in test [1] (ascorbic acid 400 μM, 60 min), 33.15 µmol. For the same compound, the “glucoraphanin (GR) content” value was determined as 93.36 µmol in test [1] (ascorbic acid 600 μM, 0 min); 75.02 µmol in test [1] (ascorbic acid 600 μM, 15 min); 55.66 µmol in test [1] (ascorbic acid 600 μM, 30 min); 37.50 µmol in test [1] (ascorbic acid 600 μM, 45 min); 22.09 µmol in test [1] (ascorbic acid 600 μM, 60 min). The “Slope (rate of glucoraphanin consumption)” value in test [1] (ascorbic acid 0 μM) is -0.09293 µmol/min; in test [1] (ascorbic acid 50 μM) it was -0.286 µmol/min; in test [1] (ascorbic acid 125 μM), -0.5622 µmol/min; in test [1] (ascorbic acid 250 μM Filtered), -0.4714 µmol/min; in test [1] (ascorbic acid 250 μM), -0.7901 µmol/min; in test [1] (ascorbic acid 400 μM), -1.007 µmol/min. Moreover, the “Slope (rate of glucoraphanin consumption)” value in test [1] (ascorbic acid 600 μM) is -1.2 µmol/min. Besides, the “stoichiometry of glucoraphanin conversion to sulforaphane” value in test [2] is on record as “equimolar conversion”.
In the case of `O=S(=O)([O-])[O-].[Mg+2]` [magnesium sulfate], the “reduction in MCP-1 levels” value in test [3] is on record as “approximately 16%”.
Still for that read-out and setting: as for `C[S+]([O-])CCCCN=C=S` (stereo not drawn) [sulforaphane, 1-isothiocyanato-4-methylsulfinylbutane], the entry is “approximately 29%”.
